Holding throughout (type): cell-based, human
Test [1] deals with WA09 hESCs. Put plainly: hESC differentiation to neural crest-like versus neural progenitor cells, flow cytometry for p75 and Hnk1. The note with it: for generation of Hnk1+ p75+ (Hnk1bright p75bright) neural crest-like population: WA09 hESCs treated 15 days, FIG. 2A, factors added to or omitted from SB 431542/BIO media; for proportion of Hnk1bright p75bright cells: dose-response, added to cultures treated with SB 431542 and Noggin, BIO 0-2 µM, Wnt3a 0-50 ng/ml. The protocol: (§1) NPC differentiation was performed as described (18). Briefly, cells were plated on Geltrex-coated plates in defined media without Activin A, supplemented with 20 μM SB 431542 (Tocris) and 500 ng/ml Noggin (R&D systems) for 11 days with or without 2 μM of (2′Z,3′E)-6-Bromoindirubin-3′-oxime (BIO) (GSK3 Inhibitor IX, Calbiochem), or 15 ng/ml Dickkopf (R&D Systems). For direct neural crest differentiation, cells were plated at a density of 1×10^5 cells/cm^2 in defined media lacking Activin A, supplemented with 2 μM BIO and 20 μM SB 431542 (SB media). Media was replaced every day. Additional experiments were performed by adding 25 ng/ml Wnt3a, 500 ng/ml Noggin or 5-50 ng/ml of BMP4 (R&D Systems) to SB media. For peripheral neuron differentiation, neural crest cells were plated in poly-L-ornithine/laminin or Geltrex-coated 4-well chamber slides. The following day, SB media was switched to DMEM/F12 N2 supplemented media with BDNF (10 ng/ml), GDNF (10 ng/ml), NGF (10 ng/ml), neurotrophin-3 (10 ng/ml), ascorbic acid (200 μM) and dbcAMP (0.5 mM). Cells were grown for 10-14 days and assayed by immunocytochemisty. Neural crest cells were cultured in media containing 10% fetal bovine serum and passed every 4-5 days. Osteocyte, adipocyte and chondrocyte differentiation was performed according to manufacturer directions using StemPro Osteogenesis Kit, StemPro Chondrogenesis Differentiation Kit, StemPro Adipogenesis Differentiation Kit (Invitrogen), respectively.
Cells were fixed in 4% paraformaldehyde in phosphate buffered saline (PBS) and stained with primary antibodies listed in attached Table 1 (below). Secondary antibodies were Alexa Fluor 488 and Alexa Fluor 555-conjugated (Invitrogen). DNA was visualized by staining with DAPI. For flow cytometry, one million live cells dissociated with Accutase were re-suspended in PBS and incubated for 30 minutes on ice with primary conjugated antibodies, listed in Table 1. Unconjugated p75 (neurotrophin receptor) and Hnk1 antibodies were detected with Alexa Fluor 633 and Alexa Fluor 488-conjugated secondary antibodies, respectively. Cells were analyzed using the CyAN ADP (Beckman Coulter) and FlowJo software.

Test [2] relates to WA09 hESCs. The test is described as follows: hESC differentiation, immunostaining for neural crest markers (p75, Ap2, Hnk1) and NPC markers (Pax6, Sox2). The protocol:
as §1, with “Briefly, cells were plated on Geltrex-coated plates in defined media without Activin A, supplemented with 20 μM SB 431542 (Tocris) and 500 ng/ml Noggin (R&D systems) for 11 days with or without 2 μM of (2′Z,3′E)-6-Bromoindirubin-3′-oxime (BIO) (GSK3 Inhibitor IX, Calbiochem), or 15 ng/ml Dickkopf (R&D Systems). For direct neural crest differentiation, cells were plated at a density of 1×10^5 cells/cm^2 in defined media lacking Activin A, supplemented with 2 μM BIO and 20 μM SB 431542 (SB media).” left out
Cells were fixed in 4% paraformaldehyde in phosphate buffered saline (PBS) and stained with primary antibodies listed in attached Table 1 (below). […] DNA was visualized by staining with DAPI. For flow cytometry, one million live cells dissociated with Accutase were re-suspended in PBS and incubated for 30 minutes on ice with primary conjugated antibodies, listed in Table 1. […] Cells were analyzed using the CyAN ADP (Beckman Coulter) and FlowJo software.

In test [3] the test system is β-catenin signaling. The test is described as follows: Top-Flash luciferase reporter assay for β-catenin activity in hESCs. The note with it: hESC cultures; Top-Flash normalized to Fop-Flash. How it is done:
Data is expressed as the fold-increase in luciferase activity over untreated cells after normalization to the Fop-Flash control. All assays were performed in triplicate and represented as +/−standard deviation. (B) Top-Flash activity in hESCs grown in defined media treated with Wnt3a, Dkk1, Wnt3a and Dkk1 or BIO. Experiments were performed in triplicate and represented as +/−standard deviation.

Setting [4] is: BIO added to SB 431542 and Noggin (Smad inhibition), 12 days.

“Also recorded” adds a separate entry of the source.

For `O=C1Nc2cc(Br)ccc2/C1=C1/Nc2ccccc2/C1=N\O` [BIO, (2′Z,3′E)-6-Bromoindirubin-3′-oxime], in test [1], the “generation of Hnk1+ p75+ (Hnk1bright p75bright) neural crest-like population” value (“generation of Hnk1+ p75+” below) is given as “ineffective” and the “proportion of Hnk1bright p75bright cells” value is “increased the proportion of Hnk1^bright p75^bright cells in a dose-dependent manner”. In test [2] (setting [4]), the “formation of Pax6+ cells” value is listed as “suppresses this; also recorded: severely inhibited the formation of Pax6^+ cells” and the “percentage of p75+ cells” value is reported as “generates p75+ Pax6− neural crest-like cells; also recorded: markedly increasing the percentage of p75^+ cells”. The Sox2 expression result in test [2] (immunostaining, Smad signaling suppressed, range of BIO concentrations) is on record as “dose-dependent response”. The “activation of β-catenin-dependent luciferase reporter (canonical Wnt pathway)” value in test [3] is given as “activates β-catenin signaling; also recorded: efficiently activates the canonical Wnt pathway”.
With `NC(=O)c1ccc(-c2nc(-c3ccc4c(c3)OCO4)c(-c3ccccn3)[nH]2)cc1` [SB 431542], the “generation of Hnk1+ p75+” value in test [1] was “ineffective”.

B1: Noggin: BMP inhibitor protein (R&D systems) (protein, UniProt Q13253 28-232, looked up)
Noggin: QHYLHIRPAPSDNLPLVDLIEHPDPIFDPKEKDLNETLLRSLLGGHYDPGFMATSPPEDRPGGGGGAAGGAEDLAELDQLLRQRPSGAMPSEIKGLEFSEGLAQGKKQRLSKKLRRKLQMWLWSQTFCPVLYAWNDLGSRFWPRYVKVGSCFSKRSCSVPEGMVCKPSKSVHLTVLRWRCQRRGGQRCGWIPIQYPIISECKCSC
On to B1, for which, in test [1], the “generation of Hnk1+ p75+” value is listed as “no major impact”.

B2: Wnt3a: recombinant Wnt protein, Wnt signaling promoter (protein, UniProt P56704 19-352, looked up)
Protein Wnt-3a: SYPIWWSLAVGPQYSSLGSQPILCASIPGLVPKQLRFCRNYVEIMPSVAEGIKIGIQECQHQFRGRRWNCTTVHDSLAIFGPVLDKATRESAFVHAIASAGVAFAVTRSCAEGTAAICGCSSRHQGSPGKGWKWGGCSEDIEFGGMVSREFADARENRPDARSAMNRHNNEAGRQAIASHMHLKCKCHGLSGSCEVKTCWWSQPDFRAIGDFLKDKYDSASEMVVEKHRESRGWVETLRPRYTYFKVPTERDLVYYEASPNFCEPNPETGSFGTRDRTCNVSSHGIDGCDLLCCGRGHNARAERRREKCRCVFHWCCYVSCQECTRVYDVHTCK
With B2, in test [1], the “generation of Hnk1+ p75+” value is reported as “can substitute for BIO” and the “proportion of Hnk1bright p75bright cells” value was “increased the proportion of Hnk1^bright p75^bright cells in a dose-dependent manner”.

B3: BMP4: bone morphogenic protein added to SB media (R&D Systems) (protein, UniProt P12644 293-408, looked up)
Bone morphogenetic protein 4: SPKHHSQRARKKNKNCRRHSLYVDFSDVGWNDWIVAPPGYQAFYCHGDCPFPLADHLNSTNHAIVQTLVNSVNSSIPKACCVPTELSAISMLYLDEYDKVVLKNYQEMVVEGCGCR
In the case of B3, the “generation of Hnk1+ p75+” value in test [1] is given as “suppressed the transition to an Hnk1^bright p75^bright state”.

B4: Dickkopf: a Wnt antagonist (R&D Systems) (protein, UniProt O94907 32-266, looked up)
Dickkopf-related protein 1: TLNSVLNSNAIKNLPPPLGGAAGHPGSAVSAAPGILYPGGNKYQTIDNYQPYPCAEDEECGTDEYCASPTRGGDAGVQICLACRKRRKRCMRHAMCCPGNYCKNGICVSSDQNHFRGEIEETITESFGNDHSTLDGYSRRTTLSSKMYHTKGQEGSVCLRSSDCASGLCCARHFWSKICKPVLKEGQVCTKHRRKGSHGLEIFQRCYCGEGLSCRIQKDHHQASNSSRLHTCQRH
Regarding B4, the “p75bright cells in NPC cultures” value in test [1] (NPC cultures obtained by treatment with Noggin and SB 431542) is “decreases the p75bright population; also recorded: severely reduced the low level of p75^bright cells”.

(Values after US10053667B2, “Differentiation of human pluripotent stem cells to multipotent neural crest cells” (UNIVERSITY OF GEORGIA RESEARCH FOUNDATION, INC., priority 2010, dated 2018).)
